Laboratory results: paper PMC9596378, “Discovery and molecular basis of subtype-selective cyclophilin inhibitors” (Nature Chemical Biology, 2022)
Values joined by “and” are separate entries in the source; they are usually repeats but may differ in a detail not shown here. Equal entries are not always repeated. Where two headings read alike, the source gives them in different places.

Tests used:
Test in all cases: Chymotrypsin coupled prolyl-isomerase assay
Type in all cases: biochemical
[1] = target: T1, CypA (Homo sapiens, UniProt P62937); settings: for prolyl-isomerase activity (raw dose-response value): CypA, in s^-1
T1 construct: PPIA (UniProtKB Entry P62937: residues 1–165); made in house; host or cells: E. coli BL21(DE3)
T1 sequence (P62937 whole entry, the tested form may be a part): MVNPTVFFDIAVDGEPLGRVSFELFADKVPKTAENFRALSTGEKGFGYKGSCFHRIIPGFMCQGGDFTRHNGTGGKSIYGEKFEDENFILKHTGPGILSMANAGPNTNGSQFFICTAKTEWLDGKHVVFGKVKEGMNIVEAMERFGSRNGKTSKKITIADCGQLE
Method in brief: (§1)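 Steps: cyclophilin plus compound 5 min at 2–3 °C; α-chymotrypsin added, 5 min more; Suc-AAPF-AMC substrate in LiCl/trifluoroethanol injected and fluorescence followed 330 s. Finals: 5 nM enzyme, 25 µM chymotrypsin, 5 µM substrate, 0.25% DMSO.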

[2] = target: T2, CypC (Homo sapiens, UniProt P45877); settings: for prolyl-isomerase activity (raw dose-response value): CypC, in s^-1
T2 construct: PPIC (UniProtKB Entry P45877: residues 24–212); host or cells: E. coli BL21(DE3)
T2 sequence (P45877 24-212): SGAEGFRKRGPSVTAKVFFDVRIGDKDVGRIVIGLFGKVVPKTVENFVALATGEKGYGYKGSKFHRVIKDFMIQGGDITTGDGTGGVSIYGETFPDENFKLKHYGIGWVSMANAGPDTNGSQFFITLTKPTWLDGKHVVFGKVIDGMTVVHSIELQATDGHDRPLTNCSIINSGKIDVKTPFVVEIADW
Method in brief: as §1

[3] = target: T3, CypH (Homo sapiens, UniProt O43447); settings: for prolyl-isomerase activity (raw dose-response value): CypH
T3 construct: PPIH (UniProtKB Entry O43447: residues 1–177); His6 with TEV site (2BT vector leader) (N); made in house; host or cells: E. coli BL21(DE3)
T3 sequence (O43447 whole entry, the tested form may be a part): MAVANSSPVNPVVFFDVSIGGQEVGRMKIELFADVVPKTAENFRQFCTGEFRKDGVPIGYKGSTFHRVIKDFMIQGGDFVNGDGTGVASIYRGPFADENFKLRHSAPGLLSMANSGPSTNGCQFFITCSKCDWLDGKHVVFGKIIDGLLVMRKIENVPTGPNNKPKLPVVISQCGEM
Method in brief: as §1

[4] = target: T4, CypE (Homo sapiens, UniProt Q9UNP9); settings: for prolyl-isomerase activity (raw dose-response value): CypE, in s^-1
T4 construct: PPIE (UniProtKB Entry Q9UNP9: residues 131–301); host or cells: E. coli BL21(DE3)
T4 sequence (Q9UNP9 131-301): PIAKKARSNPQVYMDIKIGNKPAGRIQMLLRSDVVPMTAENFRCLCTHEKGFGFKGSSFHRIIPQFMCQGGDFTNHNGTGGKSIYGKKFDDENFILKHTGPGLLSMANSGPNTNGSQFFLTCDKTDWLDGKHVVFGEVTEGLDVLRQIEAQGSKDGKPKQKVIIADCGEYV
Method in brief: as §1

[5] = target: T5, CypG (Homo sapiens, UniProt Q13427); settings: for prolyl-isomerase activity (raw dose-response value): CypG, in s^-1
T5 construct: PPIG (UniProtKB Entry Q13427: residues 1–179); His6 with thrombin site (pET28a LIC leader) (N); host or cells: E. coli BL21(DE3)
T5 sequence (Q13427 1-179): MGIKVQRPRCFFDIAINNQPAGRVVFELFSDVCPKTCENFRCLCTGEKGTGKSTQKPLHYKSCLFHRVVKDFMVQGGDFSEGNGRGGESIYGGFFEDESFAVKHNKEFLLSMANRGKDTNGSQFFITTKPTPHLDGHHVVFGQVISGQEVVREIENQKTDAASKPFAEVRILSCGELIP
Method in brief: as §1

NCCOCCNC(=O)[C@@H]1CCNC(=O)/C=C/C(=O)N2CCC[C@](Cc3ccccc3)(C2)C(=O)N[C@@H](Cc2ccc(-c3ccccc3)cc2)C(=O)NCc2ccccc2CC(=O)N1 [Compound B2] was tested, and the “prolyl-isomerase activity (raw dose-response value)” value (shortened to “prolyl-isomerase activity”) ([1]; dose 0.00457247 µM) was 0.09251 and 0.1054 and 0.1209, the “prolyl-isomerase activity” value ([1]; dose 0.0137174 µM) was 0.07185 and 0.09383 and 0.08908 and the “prolyl-isomerase activity” value ([1]; dose 0.0411523 µM) was 0.0832 and 0.08759 and 0.09561. The “prolyl-isomerase activity” value ([1]; dose 0.123457 µM) was 0.08468 and 0.0712 and 0.08817, the “prolyl-isomerase activity” value ([1]; dose 0.37037 µM) was 0.0566 and 0.04501 and 0.06387 and the “prolyl-isomerase activity” value ([1]; dose 1.11111 µM) was 0.03625 and 0.03272 and 0.04381. The “prolyl-isomerase activity” value ([1]; dose 3.33333 µM) was 0.02153 and 0.02404 and 0.02804, the “prolyl-isomerase activity” value ([1]; dose 10 µM) was 0.01608 and 0.01935 and 0.02238 and the IC50 ([1]; wild-type CypA, read-out: Wild-Type Cyclophilin Prolyl Isomerase Inhibition IC50 Values, CypA) was 0.24 µM. For the same compound, the “prolyl-isomerase activity” value ([2]; dose 0.00976562 µM) was 0.05723 and 0.05806 and 0.05564, the “prolyl-isomerase activity” value ([2]; dose 0.0195312 µM) was 0.05812 and 0.0569 and 0.05659 and the “prolyl-isomerase activity” value ([2]; dose 0.0390625 µM) was 0.05511 and 0.05318 and 0.05171. For the same compound, the “prolyl-isomerase activity” value ([2]; dose 0.078125 µM) was 0.04827 and 0.04606 and 0.04304, the “prolyl-isomerase activity” value ([2]; dose 0.15625 µM) was 0.04287 and 0.04429 and 0.04035 and the “prolyl-isomerase activity” value ([2]; dose 0.3125 µM) was 0.03472 and 0.03475 and 0.034. For the same compound, the “prolyl-isomerase activity” value ([2]; dose 0.625 µM) was 0.02805 and 0.0282 and 0.0272, the “prolyl-isomerase activity” value ([2]; dose 1.25 µM) was 0.02258 and 0.02214 and 0.02094 and the “prolyl-isomerase activity” value ([2]; dose 2.5 µM) was 0.01704 and 0.018 and 0.01642. For the same compound, the “prolyl-isomerase activity” value ([2]; dose 5 µM) was 0.01304 and 0.01485 and 0.01185, the “prolyl-isomerase activity” value ([2]; dose 10 µM) was 0.009494 and 0.009626 and 0.009002 and the IC50 ([2]; wild-type CypC, read-out: Wild-Type Cyclophilin Prolyl Isomerase Inhibition IC50 Values, CypC) was 0.38 µM. For the same compound, the “prolyl-isomerase activity” value ([3]; dose 0.0228624 µM) was 0.05989 and 0.06269 and 0.07687, the “prolyl-isomerase activity” value ([3]; dose 0.0685871 µM) was 0.06674 and 0.06641 and 0.06471 and the “prolyl-isomerase activity” value ([3]; dose 0.205761 µM) was 0.06507 and 0.06674 and 0.06594. The “prolyl-isomerase activity” value ([3]; dose 0.617284 µM) was 0.06577 and 0.07132 and 0.06657, the “prolyl-isomerase activity” value ([3]; dose 1.85185 µM) was 0.06049 and 0.06065 and 0.0705 and the “prolyl-isomerase activity” value ([3]; dose 5.55556 µM) was 0.06127 and 0.06318 and 0.06895. For the same compound, the “prolyl-isomerase activity” value ([3]; dose 16.6667 µM) was 0.05909 and 0.0562 and 0.05955, the “prolyl-isomerase activity” value ([3]; dose 50 µM) was 0.04477 and 0.04513 and 0.04995 and the IC50 ([3]; prolyl-isomerase inhibition, 5 nM cyclophilin, read-out: IC50 CypH) was ~100 µM. For the same compound, the IC50 ([3]; wild-type CypH, read-out: Wild-Type Cyclophilin Prolyl Isomerase Inhibition IC50 Values, CypH) was 100 µM, the “prolyl-isomerase activity” value ([4]; dose 0.00976562 µM) was 0.1022 and 0.09371 and 0.09482 and the “prolyl-isomerase activity” value ([4]; dose 0.0195312 µM) was 0.1041 and 0.09004 and 0.09109. The “prolyl-isomerase activity” value ([4]; dose 0.0390625 µM) was 0.08953 and 0.08464 and 0.08549, the “prolyl-isomerase activity” value ([4]; dose 0.078125 µM) was 0.08163 and 0.08105 and 0.08006 and the “prolyl-isomerase activity” value ([4]; dose 0.15625 µM) was 0.07541 and 0.07108 and 0.06602. For the same compound, the “prolyl-isomerase activity” value ([4]; dose 0.3125 µM) was 0.0578 and 0.05386 and 0.0523, the “prolyl-isomerase activity” value ([4]; dose 0.625 µM) was 0.04345 and 0.04205 and 0.03853 and the “prolyl-isomerase activity” value ([4]; dose 1.25 µM) was 0.03208 and 0.02851 and 0.02629. The “prolyl-isomerase activity” value ([4]; dose 2.5 µM) was 0.02324 and 0.0218 and 0.01925, the “prolyl-isomerase activity” value ([4]; dose 5 µM) was 0.01397 and 0.01461 and 0.01313 and the “prolyl-isomerase activity” value ([4]; dose 10 µM) was 0.008566 and 0.009565 and 0.009677. For the same compound, the IC50 ([4]; wild-type CypE, read-out: Wild-Type Cyclophilin Prolyl Isomerase Inhibition IC50 Values, CypE) was 0.3 µM, the “prolyl-isomerase activity” value ([5]; dose 6.25 µM) was 0.07439 and 0.0801 and 0.0712 and the “prolyl-isomerase activity” value ([5]; dose 12.5 µM) was 0.06556 and 0.07016 and 0.06297. The “prolyl-isomerase activity” value ([5]; dose 25 µM) was 0.0539 and 0.06023 and 0.05271, the “prolyl-isomerase activity” value ([5]; dose 50 µM) was 0.04026 and 0.03816 and 0.04547 and the “prolyl-isomerase activity” value ([5]; dose 100 µM) was 0.02765 and 0.03143. For the same compound, the IC50 ([5]; wild-type CypG, read-out: Wild-Type Cyclophilin Prolyl Isomerase Inhibition IC50 Values, CypG) was 37 µM.
